Experimental data from the NIST ThermoML archive (doi:10.1016/j.tca.2014.05.014).
Numbers after ± are expanded uncertainties.

Experiments:
[1] = mn = molality of the nth substance listed, in mol/kg; details: 101 kPa, Liquid; for speed of sound: Frequency=3 MHz, Sing-around technique in a fixed-path interferometer; for mass density: Vibrating tube method
[2] = 101 kPa, Liquid, Vibrating tube method

## OC[C@H]1O[C@@](CO)(O[C@H]2O[C@H](CO)[C@@H](O)[C@H](O)[C@H]2O)[C@@H](O)[C@@H]1O [D-sucrose] + O
[1]; 288.15 K, m1 = 0.05
  speed of sound: 1471.5 ± 1.2 m/s
  mass density: 1006.43 ± 0.17 kg/m3
[1]; 288.15 K, m1 = 0.15
  speed of sound: 1481 ± 1.2 m/s
  mass density: 1019 ± 0.18 kg/m3
[1]; 288.15 K, m1 = 0.25
  speed of sound: 1490.7 ± 1.2 m/s
  mass density: 1030.99 ± 0.19 kg/m3
[1]; 288.15 K, m1 = 0.35
  speed of sound: 1500.5 ± 1.2 m/s
  mass density: 1042.86 ± 0.2 kg/m3
[1]; 293.15 K, m1 = 0.05
  speed of sound: 1487.4 ± 1.2 m/s
  mass density: 1005.42 ± 0.17 kg/m3
[1]; 293.15 K, m1 = 0.15
  speed of sound: 1496.3 ± 1.2 m/s
  mass density: 1017.99 ± 0.18 kg/m3
[1]; 293.15 K, m1 = 0.25
  speed of sound: 1505.7 ± 1.2 m/s
  mass density: 1029.9 ± 0.19 kg/m3
[1]; 293.15 K, m1 = 0.35
  speed of sound: 1515 ± 1.2 m/s
  mass density: 1041.71 ± 0.2 kg/m3
[1]; 298.15 K, m1 = 0.05
  speed of sound: 1501.4 ± 1.2 m/s
  mass density: 1004.16 ± 0.17 kg/m3
[1]; 298.15 K, m1 = 0.15
  speed of sound: 1509.9 ± 1.2 m/s
  mass density: 1016.73 ± 0.18 kg/m3
[1]; 298.15 K, m1 = 0.25
  speed of sound: 1518.9 ± 1.2 m/s
  mass density: 1028.58 ± 0.19 kg/m3
[1]; 298.15 K, m1 = 0.35
  speed of sound: 1527.7 ± 1.2 m/s
  mass density: 1040.32 ± 0.2 kg/m3
[1]; 303.15 K, m1 = 0.05
  speed of sound: 1513.5 ± 1.2 m/s
  mass density: 1002.72 ± 0.17 kg/m3
[1]; 303.15 K, m1 = 0.15
  speed of sound: 1521.7 ± 1.2 m/s
  mass density: 1015.24 ± 0.18 kg/m3
[1]; 303.15 K, m1 = 0.25
  speed of sound: 1530.3 ± 1.2 m/s
  mass density: 1026.97 ± 0.18 kg/m3
[1]; 303.15 K, m1 = 0.35
  speed of sound: 1538.7 ± 1.2 m/s
  mass density: 1038.71 ± 0.19 kg/m3
[1]; 308.15 K, m1 = 0.05
  speed of sound: 1523.7 ± 1.2 m/s
  mass density: 1001.27 ± 0.17 kg/m3
[1]; 308.15 K, m1 = 0.15
  speed of sound: 1531.8 ± 1.2 m/s
  mass density: 1013.54 ± 0.17 kg/m3
[1]; 308.15 K, m1 = 0.25
  speed of sound: 1539.9 ± 1.2 m/s
  mass density: 1025.28 ± 0.18 kg/m3
[1]; 308.15 K, m1 = 0.35
  speed of sound: 1548.2 ± 1.2 m/s
  mass density: 1036.92 ± 0.19 kg/m3

## O [water]
[2]; 288.15 K
  mass density: 999.591 ± 0.16 kg/m3
[2]; 293.15 K
  mass density: 998.551 ± 0.17 kg/m3
[2]; 298.15 K
  mass density: 997.255 ± 0.17 kg/m3
[2]; 303.15 K
  mass density: 995.775 ± 0.17 kg/m3
[2]; 308.15 K
  mass density: 994.329 ± 0.17 kg/m3
